We go through three molecules from patent publication US20240246942A1, “KINASE INHIBITORS FOR THE TREATMENT OF NEURODEGENERATIVE DISEASES” (priority 2020, published 2024).

Holding throughout (experiment): biochemical
The target of experiment [1] is T1, panel of 374 wild-type kinases (Homo sapiens, UniProt P53350).
T1 construct: purchased Reaction Biology Corporation
The settings on record: read-out: % Enzyme Activity (relative to DMSO controls), kinase PLK1.

The target of experiment [2] is T2, panel of 374 wild-type kinases (Homo sapiens, UniProt Q15375).
T2 construct: purchased Reaction Biology Corporation
The settings on record: read-out: % Enzyme Activity (relative to DMSO controls), EPHA7.

The target of experiment [3] is T3, panel of 374 wild-type kinases (Homo sapiens, UniProt P10721).
T3 construct: purchased Reaction Biology Corporation
The settings on record: read-out: % Enzyme Activity (relative to DMSO controls), c-Kit.

The target of experiment [4] is T4, panel of 374 wild-type kinases (Homo sapiens, UniProt P42679).
T4 construct: purchased Reaction Biology Corporation
T4 sequence (P42679 1-507): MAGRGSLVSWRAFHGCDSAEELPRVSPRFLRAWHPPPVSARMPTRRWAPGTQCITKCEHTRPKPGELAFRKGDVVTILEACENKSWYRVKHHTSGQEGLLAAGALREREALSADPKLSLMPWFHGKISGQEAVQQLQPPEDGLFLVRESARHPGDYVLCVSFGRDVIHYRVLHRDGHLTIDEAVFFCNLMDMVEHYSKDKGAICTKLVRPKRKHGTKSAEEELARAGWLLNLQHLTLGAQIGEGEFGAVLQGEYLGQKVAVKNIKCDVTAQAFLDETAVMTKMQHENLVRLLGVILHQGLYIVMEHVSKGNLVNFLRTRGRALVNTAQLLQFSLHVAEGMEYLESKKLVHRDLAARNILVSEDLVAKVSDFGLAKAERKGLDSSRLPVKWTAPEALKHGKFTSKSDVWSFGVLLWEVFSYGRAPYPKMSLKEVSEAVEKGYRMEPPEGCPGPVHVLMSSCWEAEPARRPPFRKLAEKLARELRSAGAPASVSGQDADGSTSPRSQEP
The settings on record: read-out: % Enzyme Activity (relative to DMSO controls), CTK/MATK.

The target in experiment [5] is T5, panel of 374 wild-type kinases (Homo sapiens, UniProt Q02763).
T5 construct: purchased Reaction Biology Corporation
The settings on record: read-out: % Enzyme Activity (relative to DMSO controls), kinase TIE2/TEK.

Experiment [6] concerns the target T6, panel of 374 wild-type kinases (Homo sapiens, UniProt Q15831).
T6 construct: purchased Reaction Biology Corporation
T6 sequence (Q15831 1-433): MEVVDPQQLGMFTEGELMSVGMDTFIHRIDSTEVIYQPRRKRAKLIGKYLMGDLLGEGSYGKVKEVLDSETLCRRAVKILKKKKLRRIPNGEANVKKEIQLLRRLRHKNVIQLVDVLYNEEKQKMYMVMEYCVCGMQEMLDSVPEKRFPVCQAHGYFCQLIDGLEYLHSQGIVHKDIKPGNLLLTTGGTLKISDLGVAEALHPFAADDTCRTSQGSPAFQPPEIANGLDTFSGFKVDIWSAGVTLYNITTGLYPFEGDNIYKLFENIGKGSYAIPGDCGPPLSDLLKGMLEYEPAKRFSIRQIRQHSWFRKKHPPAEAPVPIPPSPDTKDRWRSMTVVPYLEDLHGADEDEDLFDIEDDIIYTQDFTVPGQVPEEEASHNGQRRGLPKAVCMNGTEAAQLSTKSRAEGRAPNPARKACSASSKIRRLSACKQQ
The settings on record: read-out: % Enzyme Activity (relative to DMSO controls), LKB1.

Experiment [7] concerns the target T7, panel of 374 wild-type kinases (Homo sapiens, UniProt P11362).
T7 construct: purchased Reaction Biology Corporation
The settings on record: read-out: % Enzyme Activity (relative to DMSO controls), FGFR1.

The target in experiment [8] is T8, panel of 374 wild-type kinases (Homo sapiens, UniProt P49760).
T8 construct: purchased Reaction Biology Corporation
The settings on record: read-out: % Enzyme Activity (relative to DMSO controls), CLK2.

Experiment [9] has as its target T9, panel of 374 wild-type kinases (Homo sapiens, UniProt P07948).
T9 construct: purchased Reaction Biology Corporation
The settings on record: read-out: % Enzyme Activity (relative to DMSO controls), LYN.

Experiment [10] deals with T10, panel of 374 wild-type kinases (Homo sapiens, UniProt P30530).
T10 construct: purchased Reaction Biology Corporation
T10 sequence (P30530 26-894): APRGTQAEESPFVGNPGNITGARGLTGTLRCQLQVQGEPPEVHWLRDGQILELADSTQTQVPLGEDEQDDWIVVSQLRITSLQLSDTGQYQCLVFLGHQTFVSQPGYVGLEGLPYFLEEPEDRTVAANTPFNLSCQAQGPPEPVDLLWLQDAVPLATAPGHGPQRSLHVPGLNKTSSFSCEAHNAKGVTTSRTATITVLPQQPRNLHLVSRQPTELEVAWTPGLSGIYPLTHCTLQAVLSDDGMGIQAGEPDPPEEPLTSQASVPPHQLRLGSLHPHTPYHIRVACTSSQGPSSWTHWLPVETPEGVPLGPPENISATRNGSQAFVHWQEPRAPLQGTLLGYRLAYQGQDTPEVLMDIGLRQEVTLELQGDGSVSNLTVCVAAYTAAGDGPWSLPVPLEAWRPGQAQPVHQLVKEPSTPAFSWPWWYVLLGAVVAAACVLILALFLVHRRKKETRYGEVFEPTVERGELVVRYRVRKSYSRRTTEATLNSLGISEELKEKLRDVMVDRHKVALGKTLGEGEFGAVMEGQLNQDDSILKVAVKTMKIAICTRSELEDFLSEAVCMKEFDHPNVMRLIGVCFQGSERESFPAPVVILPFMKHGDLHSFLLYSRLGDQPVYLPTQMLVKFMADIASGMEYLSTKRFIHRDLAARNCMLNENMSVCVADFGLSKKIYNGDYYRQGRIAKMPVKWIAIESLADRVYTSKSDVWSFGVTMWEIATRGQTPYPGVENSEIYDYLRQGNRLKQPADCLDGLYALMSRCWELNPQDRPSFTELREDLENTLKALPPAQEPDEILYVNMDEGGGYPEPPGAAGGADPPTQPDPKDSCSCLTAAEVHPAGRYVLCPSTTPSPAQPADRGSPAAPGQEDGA
The settings on record: read-out: % Enzyme Activity (relative to DMSO controls), AXL.

T3 sequence (P10721 26-976): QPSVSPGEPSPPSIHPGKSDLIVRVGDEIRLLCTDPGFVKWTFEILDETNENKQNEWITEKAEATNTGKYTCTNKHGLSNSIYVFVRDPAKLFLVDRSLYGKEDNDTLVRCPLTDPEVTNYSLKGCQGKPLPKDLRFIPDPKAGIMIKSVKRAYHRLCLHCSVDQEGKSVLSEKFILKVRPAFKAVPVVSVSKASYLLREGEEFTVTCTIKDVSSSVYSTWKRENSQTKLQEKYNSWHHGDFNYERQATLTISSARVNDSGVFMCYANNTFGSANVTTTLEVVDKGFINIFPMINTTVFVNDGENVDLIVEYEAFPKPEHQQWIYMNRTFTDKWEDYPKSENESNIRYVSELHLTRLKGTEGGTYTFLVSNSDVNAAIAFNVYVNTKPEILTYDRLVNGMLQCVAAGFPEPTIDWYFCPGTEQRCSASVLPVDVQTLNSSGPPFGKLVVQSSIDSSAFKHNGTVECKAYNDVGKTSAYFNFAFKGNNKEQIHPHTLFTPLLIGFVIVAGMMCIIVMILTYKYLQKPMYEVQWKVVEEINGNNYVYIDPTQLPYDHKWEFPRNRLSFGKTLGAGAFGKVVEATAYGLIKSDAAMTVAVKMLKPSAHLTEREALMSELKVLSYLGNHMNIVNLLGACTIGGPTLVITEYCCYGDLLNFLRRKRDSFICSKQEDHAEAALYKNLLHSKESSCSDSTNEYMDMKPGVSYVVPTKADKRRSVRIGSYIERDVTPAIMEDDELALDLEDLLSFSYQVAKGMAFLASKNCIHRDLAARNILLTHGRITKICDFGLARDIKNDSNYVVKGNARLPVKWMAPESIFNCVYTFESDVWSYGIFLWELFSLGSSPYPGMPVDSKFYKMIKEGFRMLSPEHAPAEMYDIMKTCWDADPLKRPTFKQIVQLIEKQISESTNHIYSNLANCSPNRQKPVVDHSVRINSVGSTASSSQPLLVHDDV
T2 sequence (Q15375 28-998): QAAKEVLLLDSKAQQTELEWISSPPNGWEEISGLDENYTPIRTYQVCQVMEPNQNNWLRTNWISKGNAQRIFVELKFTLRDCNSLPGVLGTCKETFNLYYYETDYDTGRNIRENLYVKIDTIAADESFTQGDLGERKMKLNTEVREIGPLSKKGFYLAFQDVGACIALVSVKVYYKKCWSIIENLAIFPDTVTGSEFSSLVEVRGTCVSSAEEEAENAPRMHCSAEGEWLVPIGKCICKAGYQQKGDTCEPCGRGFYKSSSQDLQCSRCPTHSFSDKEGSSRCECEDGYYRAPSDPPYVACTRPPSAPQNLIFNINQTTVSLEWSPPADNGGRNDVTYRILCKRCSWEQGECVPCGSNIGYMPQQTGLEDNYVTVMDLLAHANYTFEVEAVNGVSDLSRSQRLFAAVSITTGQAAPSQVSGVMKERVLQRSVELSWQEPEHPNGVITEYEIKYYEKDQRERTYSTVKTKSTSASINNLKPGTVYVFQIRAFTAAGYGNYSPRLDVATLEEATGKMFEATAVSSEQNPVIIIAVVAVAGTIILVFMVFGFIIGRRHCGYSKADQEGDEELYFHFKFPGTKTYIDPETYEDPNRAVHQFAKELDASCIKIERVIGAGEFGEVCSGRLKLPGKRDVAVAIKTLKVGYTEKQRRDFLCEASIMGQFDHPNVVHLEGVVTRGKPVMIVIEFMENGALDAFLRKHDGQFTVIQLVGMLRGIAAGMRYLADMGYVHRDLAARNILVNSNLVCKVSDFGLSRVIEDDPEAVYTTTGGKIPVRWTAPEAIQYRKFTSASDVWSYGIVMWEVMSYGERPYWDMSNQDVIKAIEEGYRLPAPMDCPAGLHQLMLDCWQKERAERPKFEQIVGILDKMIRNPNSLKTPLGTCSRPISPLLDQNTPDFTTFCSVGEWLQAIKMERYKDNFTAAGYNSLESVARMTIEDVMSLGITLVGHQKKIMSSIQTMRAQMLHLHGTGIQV
T8 sequence (P49760 whole entry): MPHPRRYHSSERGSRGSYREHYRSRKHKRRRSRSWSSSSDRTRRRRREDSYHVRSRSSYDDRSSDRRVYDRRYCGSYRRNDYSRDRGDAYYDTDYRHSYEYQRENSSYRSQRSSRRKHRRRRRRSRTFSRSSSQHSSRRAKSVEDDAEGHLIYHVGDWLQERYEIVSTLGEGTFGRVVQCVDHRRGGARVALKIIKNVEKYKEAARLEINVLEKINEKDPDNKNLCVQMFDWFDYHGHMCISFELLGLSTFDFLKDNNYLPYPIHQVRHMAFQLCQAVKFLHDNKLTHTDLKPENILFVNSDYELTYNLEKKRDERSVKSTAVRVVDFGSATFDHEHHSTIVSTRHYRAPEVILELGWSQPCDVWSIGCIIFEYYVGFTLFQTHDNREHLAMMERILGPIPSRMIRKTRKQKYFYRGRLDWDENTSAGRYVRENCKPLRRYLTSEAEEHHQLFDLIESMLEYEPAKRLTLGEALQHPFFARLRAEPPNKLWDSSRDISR
T7 sequence (P11362 22-822): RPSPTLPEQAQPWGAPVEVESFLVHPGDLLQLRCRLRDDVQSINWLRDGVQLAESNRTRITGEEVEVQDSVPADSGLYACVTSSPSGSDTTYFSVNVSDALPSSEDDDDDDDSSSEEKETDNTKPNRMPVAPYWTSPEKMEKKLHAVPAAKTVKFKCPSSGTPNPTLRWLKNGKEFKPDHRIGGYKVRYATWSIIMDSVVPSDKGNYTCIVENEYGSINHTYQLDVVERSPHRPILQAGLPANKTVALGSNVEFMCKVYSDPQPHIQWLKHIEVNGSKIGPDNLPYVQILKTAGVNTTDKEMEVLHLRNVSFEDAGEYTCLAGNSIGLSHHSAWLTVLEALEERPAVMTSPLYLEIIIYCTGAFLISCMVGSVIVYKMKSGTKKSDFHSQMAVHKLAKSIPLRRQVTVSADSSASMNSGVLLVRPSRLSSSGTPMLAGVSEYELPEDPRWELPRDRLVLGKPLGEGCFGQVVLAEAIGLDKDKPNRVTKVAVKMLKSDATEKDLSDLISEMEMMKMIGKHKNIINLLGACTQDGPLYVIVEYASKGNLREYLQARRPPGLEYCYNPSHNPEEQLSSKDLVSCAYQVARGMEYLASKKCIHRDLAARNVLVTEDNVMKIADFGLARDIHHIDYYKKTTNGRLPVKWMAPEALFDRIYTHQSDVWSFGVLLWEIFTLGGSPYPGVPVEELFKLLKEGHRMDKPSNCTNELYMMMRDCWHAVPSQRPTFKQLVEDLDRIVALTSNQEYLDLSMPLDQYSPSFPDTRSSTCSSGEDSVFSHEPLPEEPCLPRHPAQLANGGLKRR
T1 sequence (P53350 whole entry): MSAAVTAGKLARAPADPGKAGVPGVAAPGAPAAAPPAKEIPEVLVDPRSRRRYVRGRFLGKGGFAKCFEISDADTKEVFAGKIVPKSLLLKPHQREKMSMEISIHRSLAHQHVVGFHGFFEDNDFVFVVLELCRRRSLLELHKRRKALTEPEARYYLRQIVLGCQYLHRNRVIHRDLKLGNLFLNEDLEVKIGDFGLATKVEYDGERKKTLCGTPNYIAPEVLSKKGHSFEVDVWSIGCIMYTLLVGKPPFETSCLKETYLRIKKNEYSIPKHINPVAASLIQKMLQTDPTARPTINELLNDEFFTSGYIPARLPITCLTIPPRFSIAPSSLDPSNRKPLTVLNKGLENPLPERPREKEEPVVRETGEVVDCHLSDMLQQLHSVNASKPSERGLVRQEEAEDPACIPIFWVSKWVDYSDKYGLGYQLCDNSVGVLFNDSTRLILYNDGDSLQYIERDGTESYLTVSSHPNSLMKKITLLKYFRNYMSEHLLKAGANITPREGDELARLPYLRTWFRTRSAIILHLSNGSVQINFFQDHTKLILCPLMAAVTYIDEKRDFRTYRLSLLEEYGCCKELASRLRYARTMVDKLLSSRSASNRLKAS
T9 sequence (P07948 whole entry): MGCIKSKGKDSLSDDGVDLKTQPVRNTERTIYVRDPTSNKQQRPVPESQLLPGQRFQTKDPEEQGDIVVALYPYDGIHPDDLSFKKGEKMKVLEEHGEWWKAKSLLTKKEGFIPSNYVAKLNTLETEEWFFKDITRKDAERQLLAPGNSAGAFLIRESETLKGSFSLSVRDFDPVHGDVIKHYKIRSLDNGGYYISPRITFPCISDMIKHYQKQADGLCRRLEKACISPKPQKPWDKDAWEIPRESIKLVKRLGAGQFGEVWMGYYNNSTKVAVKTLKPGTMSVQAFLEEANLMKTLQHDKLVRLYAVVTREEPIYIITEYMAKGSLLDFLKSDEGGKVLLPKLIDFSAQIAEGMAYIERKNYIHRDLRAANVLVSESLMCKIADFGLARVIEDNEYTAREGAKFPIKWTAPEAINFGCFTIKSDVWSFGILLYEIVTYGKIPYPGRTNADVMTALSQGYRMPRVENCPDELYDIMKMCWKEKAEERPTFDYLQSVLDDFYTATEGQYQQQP

Take `O=C(Nc1cnn(-c2csc(C(=O)NC3COC3)c2)c1)Nc1ccccc1Cl` [Compound 17, 4-(4-(3-(2-chlorophenyl)ureido)-1H-pyrazol-1-yl)-N-(oxetan-3-yl)thiophene-2-carboxamide]: the remaining activity at 5 µM in experiment [1] turned out to be 97%; in experiment [2], 103%; in [3], 89.2%; in experiment [4] it was 99.7%; in experiment [5] it was 100%; in [6] it was 118%. The remaining activity at 5 µM in experiment [7] amounted to 98.5%; in experiment [8], 103%; in experiment [9], 96.8%; in [10] it was 96.7%.
On to `O=C(Nc1cnn(-c2csc(C(=O)NC3COC3)c2)c1)Nc1c(F)cccc1Cl` [Compound 25, 4-(4-(3-(2-chloro-6-fluorophenyl)ureido)-1H-pyrazol-1-yl)-N-(oxetan-3-yl)thiophene-2-carboxamide], for which the remaining activity at 5 µM in [1] was found to be 95.5%; in experiment [2], 91.2%; in experiment [3], 94%; in [4] it was 100%; in [5], 105%; in experiment [6] it was 94.7%. In addition, the remaining activity at 5 µM stood at 93.2% in [7], 112% in experiment [8], 95.3% in experiment [9] and 73% in experiment [10].
For the molecule `Cc1sc(C(=O)NC2COC2)cc1-n1cc(NC(=O)Nc2c(F)cccc2Cl)cn1` [Compound 27, 4-(4-(3-(2-chloro-6-fluorophenyl)ureido)-1H-pyrazol-1-yl)-5-methyl-N-(oxetan-3-yl)thiophene-2-carboxamide], the remaining activity at 10 µM was 104% in experiment [1] (10 uM); 98.6% in experiment [2] (10 uM); 64.4% in experiment [3] (10 uM); 97.8% in experiment [4] (10 uM); 86.6% in [5] (10 uM); 97.6% in experiment [6] (10 uM). In addition, the remaining activity at 10 µM was 114% in experiment [7] (10 uM), 105% in [8] (10 uM), 106% in [9] (10 uM) and 86.6% in experiment [10] (10 uM).
